Key:
giant foxtail = assay: Test A pre-/postemergence herbicide test; type: in vivo, Setaria faberii
Summary of the method: (§1)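 Planted in loam–sand blend; treated the same day preemergence by directed soil spray, while separately grown plants at one- to two-leaf stage got postemergence spray. Compared visually with untreated controls after approximately 10 days; 100 means complete control.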

rice = assay: Test B flooded paddy test; type: in vivo, Oryza sativa; conditions: 500 g ai/ha, Flood; scale of 0 to 100 where 0 is no effect and 100 is complete control
Summary of the method: (§2)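 Treatment was made at the 2-leaf stage by dosing the standing floodwater, kept 3 cm above soil level for the whole test. Greenhouse exposure lasted 13 to 15 days. Response is a visual percent rating relative to controls, where a dash indicates no test result.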

ducksalad = assay: Test B flooded paddy test; type: in vivo, Heteranthera limosa; conditions: 500 g ai/ha, Flood; scale of 0 to 100 where 0 is no effect and 100 is complete control
Summary of the method: as §2

pigweed = assay: Test A pre-/postemergence herbicide test; type: in vivo, Amaranthus retroflexus
Summary of the method: as §1

ryegrass, Italian = assay: Test A pre-/postemergence herbicide test; type: in vivo, Lolium multiflorum
Summary of the method: as §1

barnyardgrass [1] = assay: Test A pre-/postemergence herbicide test; type: in vivo, Echinochloa crus-galli
Summary of the method: as §1

blackgrass = assay: Test A postemergence herbicide test; type: in vivo, Alopecurus myosuroides
Summary of the method: (§3)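 Young potted plants in a loam–sand mix, one- to two-leaf stage and 2–10 cm tall, receive the test chemical postemergence and stay in a greenhouse for approximately 10 days. Injury is then judged by eye against untreated plants, scored 0 (none) to 100 (complete control).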

ragweed = assay: Test A pre-/postemergence herbicide test; type: in vivo, Ambrosia elatior
Summary of the method: as §1

wheat = assay: Test A pre-/postemergence herbicide test; type: in vivo, Triticum aestivum; conditions: Postemergence
Summary of the method: as §1

kochia = assay: Test A pre-/postemergence herbicide test; type: in vivo, Kochia scoparia
Summary of the method: as §1

galium = assay: Test A postemergence herbicide test; type: in vivo, Galium aparine
Summary of the method: as §3

corn = assay: Test A pre-/postemergence herbicide test; type: in vivo, Zea mays; conditions: Postemergence
Summary of the method: as §1

sedge, umbrella = assay: Test B flooded paddy test; type: in vivo, Cyperus difformis; conditions: 500 g ai/ha, Flood; scale of 0 to 100 where 0 is no effect and 100 is complete control
Summary of the method: as §2

barnyardgrass [2] = assay: Test B flooded paddy test; type: in vivo, Echinochloa crus-galli; conditions: 500 g ai/ha, Flood; scale of 0 to 100 where 0 is no effect and 100 is complete control
Summary of the method: as §2

[3] = Postemergence, 125 g ai/ha, visual rating on 0 to 100 scale (0 no effect, 100 complete control), approx. 10 days
[4] = Postemergence, 500 g ai/ha, 0 to 100 scale (0 no effect, 100 complete control)
[5] = Preemergence, 125 g ai/ha, 0 to 100 scale where 0 is no effect and 100 is complete control
[6] = Preemergence, 500 g ai/ha, visual rating on 0 to 100 scale (0 no effect, 100 complete control)
[7] = 125 g ai/ha, visual rating on 0 to 100 scale (0 no effect, 100 complete control), approx. 10 days
[8] = 500 g ai/ha, 0 to 100 scale (0 no effect, 100 complete control)
[9] = 125 g ai/ha, visual rating, 0 to 100 scale, 0 no effect, 100 complete control, approximately 10 days, preemergence
[10] = Postemergence, 125 g ai/ha, 0 to 100 scale, 0 no effect, 100 complete control
[11] = preemergence, 500 g ai/ha, 0 to 100 scale
[12] = 125 g ai/ha, 0 to 100 scale, 0 no effect, 100 complete control

O=C1NCC(c2cccc(C(F)(F)F)c2)C1C(=O)Nc1cccc(C(F)(F)F)c1 (stereo not drawn) [Compound 313]
Plant response rating, Foxtail, Giant (giant foxtail; [3]): 40
Plant response rating, Foxtail, Giant (giant foxtail; [4]): 70
Plant response rating, Foxtail, Giant (giant foxtail; [5]): 30
Foxtail, Giant plant response rating (giant foxtail; [6]): 80
Plant response rating, Rice (rice): 0
Plant response rating, Ducksalad (ducksalad): 0
Plant response rating, Pigweed (pigweed; [3]): 0
Plant response rating, Pigweed (pigweed; [4]): 0
Plant response rating, Pigweed (pigweed; [5]): 0
Pigweed plant response rating (pigweed; [6]): 0
Plant response rating, Ryegrass, Italian (ryegrass, Italian; [3]): 0
Plant response rating, Ryegrass, Italian (ryegrass, Italian; [4]): 0
Plant response rating, Ryegrass, Italian (ryegrass, Italian; [5]): 0
Ryegrass, Italian plant response rating (ryegrass, Italian; [6]): 0
Plant response rating, Barnyardgrass (barnyardgrass [1]; [3]): 20
Plant response rating, Barnyardgrass (barnyardgrass [1]; [4]): 80
Plant response rating, Barnyardgrass (barnyardgrass [1]; [5]): 50
Barnyardgrass plant response rating (barnyardgrass [1]; [6]): 80
Plant response rating, Blackgrass (blackgrass; [7]): 0
Plant response rating, Blackgrass (blackgrass; [8]): 0
Plant response rating, Ragweed (ragweed; [3]): 0
Plant response rating, Ragweed (ragweed; [4]): 0
Plant response rating, Ragweed (ragweed; [5]): 0
Ragweed plant response rating (ragweed; [6]): 0
Plant response rating, Wheat (wheat; [7]): 0
Plant response rating, Wheat (wheat; [8]): 0
Plant response rating, Kochia (kochia; [3]): 0
Plant response rating, Kochia (kochia; [4]): 0
Plant response rating, Kochia (kochia; [5]): 0
Kochia plant response rating (kochia; [6]): 0
Plant response rating, Galium (galium; [7]): 0
Plant response rating, Galium (galium; [8]): 0
Plant response rating, Corn (corn; [7]): 0
Plant response rating, Corn (corn; [8]): 0
Plant response rating, Sedge, Umbrella (sedge, umbrella): 0
Plant response rating, Barnyardgrass (barnyardgrass [2]): 60

O=C1NCC(c2cccc(OC(F)(F)C(F)F)c2)C1C(=O)Nc1ccccc1F (racemic) [Compound 121]
Plant response rating, Foxtail, Giant (giant foxtail; [9]): 90
Plant response rating, Foxtail, Giant (giant foxtail; [10]): 80
Foxtail, Giant plant response rating (0 to 100 scale, 0 is no effect, 100 is complete control) (giant foxtail; Postemergence, 500 g ai/ha): 90
Plant response rating, Foxtail, Giant (giant foxtail; [11]): 90
Plant response rating, Rice (rice): 35
Plant response rating, Ducksalad (ducksalad): 100
Plant response rating, Pigweed (pigweed; [9]): 50
Plant response rating, Pigweed (pigweed; [10]): 0
Pigweed plant response rating (0 to 100 scale, 0 is no effect, 100 is complete control) (pigweed; Postemergence, 500 g ai/ha): 0
Plant response rating, Pigweed (pigweed; [11]): 70
Plant response rating, Ryegrass, Italian (ryegrass, Italian; [9]): 0
Plant response rating, Ryegrass, Italian (ryegrass, Italian; [10]): 40
Ryegrass, Italian plant response rating (0 to 100 scale, 0 is no effect, 100 is complete control) (ryegrass, Italian; Postemergence, 500 g ai/ha): 50
Plant response rating, Ryegrass, Italian (ryegrass, Italian; [11]): 0
Plant response rating, Barnyardgrass (barnyardgrass [1]; [9]): 80
Plant response rating, Barnyardgrass (barnyardgrass [1]; [10]): 70
Plant response rating, Barnyardgrass (barnyardgrass [1]; [4]): 80
Plant response rating, Barnyardgrass (barnyardgrass [1]; preemergence, 500 g ai/ha, 0 to 100 scale (0 no effect, 100 complete control)): 90
Plant response rating, Blackgrass (blackgrass; [12]): 60
Plant response rating, Blackgrass (blackgrass; [8]): 70
Plant response rating, Ragweed (ragweed; [9]): 70
Plant response rating, Ragweed (ragweed; [10]): 0
Ragweed plant response rating (0 to 100 scale, 0 is no effect, 100 is complete control) (ragweed; Postemergence, 500 g ai/ha): 30
Plant response rating, Ragweed (ragweed; [11]): 70
Plant response rating, Wheat (wheat; [12]): 50
Wheat plant response rating (0 to 100 scale, 0 is no effect, 100 is complete control) (wheat; 500 g ai/ha): 60
Plant response rating, Kochia (kochia; [9]): 60
Plant response rating, Kochia (kochia; [10]): 50
Kochia plant response rating (0 to 100 scale, 0 is no effect, 100 is complete control) (kochia; Postemergence, 500 g ai/ha): 60
Plant response rating, Kochia (kochia; [11]): 70
Plant response rating, Galium (galium; [12]): 60
Galium plant response rating (0 to 100 scale, 0 is no effect, 100 is complete control) (galium; 500 g ai/ha): 70
Plant response rating, Corn (corn; [12]): 50
Plant response rating, Corn (corn; [8]): 70
Plant response rating, Sedge, Umbrella (sedge, umbrella): 0
Plant response rating, Barnyardgrass (barnyardgrass [2]): 70

— US10294202B2, “Pyrrolidinones as herbicides” (FMC Corporation, priority 2013, dated 2019)
